From patent publication US9586961B2, “Homopiperazine derivatives as protein tyrosine kinase inhibitors and pharmaceutical use thereof” (LEO PHARMA A/S, priority 2010, dated 2017)

Experiments:
Type in all cases: biochemical
JAK2 = target: T1, JAK2 (Homo sapiens, UniProt O60674); assay: JAK2 kinase assay (HTRF, inhibition of phosphorylation of a synthetic peptide); conditions: catalytic domain, His-tag; 4 μM ATP (Km); read-out: JAK2 kinase inhibitory activity (EC50)
T1 construct: All four purified enzymes contain only the catalytic domain; His (N); purchased Carna Biosciences, Inc; host or cells: baculovirus expression system
How it was run: (§1)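 Baculovirus-expressed human catalytic domains (GST-JAK1, GST-TYK2, His-JAK2, His-JAK3) phosphorylated 1 μM TK substrate-biotin at ATP Km (JAK1 7 μM, JAK2 4 μM, JAK3 2 μM, TYK2 13 μM) in pH 7.0 Hepes for 20-30 min at RT, 0.75% DMSO. EDTA stop, then overnight streptavidin-XL665/cryptate-antibody detection and HTRF read.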

JAK3 = target: T2, JAK3 (Homo sapiens, UniProt P52333); assay: JAK3 kinase assay (HTRF, inhibition of phosphorylation of a synthetic peptide); conditions: catalytic domain, His-tag; 2 μM ATP (Km); read-out: JAK3 kinase inhibitory activity (EC50)
T2 construct: All four purified enzymes contain only the catalytic domain; His (N); purchased Carna Biosciences, Inc; host or cells: baculovirus expression system
How it was run: as §1

JAK1 = target: T3, JAK1 (Homo sapiens, UniProt P23458); assay: JAK1 kinase assay (HTRF, inhibition of phosphorylation of a synthetic peptide); conditions: catalytic domain aa 850-1154, GST-tag; 7 μM ATP (Km); read-out: JAK1 kinase inhibitory activity (EC50)
T3 construct: JAK1 (aa 850-1154) and TYK2 (aa 871-1187) are expressed with an N-terminally fused GST-tag; GST (N); purchased Carna Biosciences, Inc; host or cells: baculovirus expression system
How it was run: as §1

T3 sequence (P23458 850-1154): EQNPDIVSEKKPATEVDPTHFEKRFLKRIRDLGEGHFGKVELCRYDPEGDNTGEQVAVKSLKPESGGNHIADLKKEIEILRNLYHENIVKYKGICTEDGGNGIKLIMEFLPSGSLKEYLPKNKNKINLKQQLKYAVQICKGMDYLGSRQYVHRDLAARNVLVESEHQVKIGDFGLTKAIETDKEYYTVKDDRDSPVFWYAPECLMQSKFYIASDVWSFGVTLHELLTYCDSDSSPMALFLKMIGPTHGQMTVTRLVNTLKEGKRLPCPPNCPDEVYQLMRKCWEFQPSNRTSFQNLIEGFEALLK
T1 sequence (O60674 849-1124 limits assumed): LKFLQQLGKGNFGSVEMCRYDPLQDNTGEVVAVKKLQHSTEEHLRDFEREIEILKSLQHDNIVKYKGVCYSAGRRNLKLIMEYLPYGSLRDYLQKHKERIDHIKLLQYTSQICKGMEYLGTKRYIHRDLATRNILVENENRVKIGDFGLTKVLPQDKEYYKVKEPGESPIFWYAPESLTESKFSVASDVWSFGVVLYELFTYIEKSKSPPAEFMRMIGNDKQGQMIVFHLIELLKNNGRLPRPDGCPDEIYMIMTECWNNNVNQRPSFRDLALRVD
T2 sequence (P52333 822-1111 limits assumed): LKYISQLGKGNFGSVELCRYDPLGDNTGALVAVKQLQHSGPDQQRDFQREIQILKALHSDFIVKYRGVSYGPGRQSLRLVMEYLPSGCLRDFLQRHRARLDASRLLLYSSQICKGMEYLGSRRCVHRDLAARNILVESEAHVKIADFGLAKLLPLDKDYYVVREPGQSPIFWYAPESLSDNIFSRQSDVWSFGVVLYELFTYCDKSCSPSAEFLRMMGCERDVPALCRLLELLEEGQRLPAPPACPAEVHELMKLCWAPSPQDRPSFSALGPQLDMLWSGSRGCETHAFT

EC50 (JAK2)	EC50 (JAK3)	EC50 (JAK1)	SMILES
100 to 1000 nM	> 1000 nM	100 to 1000 nM	Cc1nnc(C(=O)N2CCN(c3ncnc4[nH]ccc34)CC3(CC3)C2)o1 [Example 194, (5-methyl-1,3,4-oxadiazol-2-yl)-[5-(7H-pyrrolo[2,3-d]pyrimidin-4-yl)-5,8-diazaspiro[2.6]nonan-8-yl]methanone]
100 to 1000 nM	> 1000 nM	100 to 1000 nM	Cn1cncc1C(=O)N1CCCN(c2ncnc3[nH]ccc23)CC12CC2 [Example 145, (3-methylimidazol-4-yl)-[5-(7H-pyrrolo[2,3-d]pyrimidin-4-yl)-5,9-diazaspiro[2.6]nonan-9-yl]methanone]
< 100 nM	100 to 1000 nM	100 to 1000 nM	COc1ccc(CC(=O)N2CCN(c3ncnc4[nH]ccc34)CC3(CC3)C2)cc1 [Example 261, 2-(4-methoxyphenyl)-1-[5-(7H-pyrrolo[2,3-d]pyrimidin-4-yl)-5,8-diazaspiro[2.6]nonan-8-yl]ethanone]
< 100 nM	100 to 1000 nM	100 to 1000 nM	O=C(Cc1ccc(Cl)cc1)N1CCCN(c2ncnc3[nH]ccc23)CC12CC2 [Example 126, 2-(4-chlorophenyl)-1-[5-(7H-pyrrolo[2,3-d]pyrimidin-4-yl)-5,9-diazaspiro[2.6]nonan-9-yl]ethanone]
100 to 1000 nM	> 1000 nM	100 to 1000 nM	O=C(c1cccc(O)n1)N1CCN(c2ncnc3[nH]ccc23)CC2(CC2)C1 [Example 163, (6-hydroxy-2-pyridyl)-[5-(7H-pyrrolo[2,3-d]pyrimidin-4-yl)-5,8-diazaspiro[2.6]nonan-8-yl]methanone]
< 100 nM	100 to 1000 nM	< 100 nM	O=C(c1ccc(Cl)cc1)N1CCCN(c2ncnc3[nH]ccc23)CC12CC2 [Example 180, (4-chlorophenyl)-[5-(7H-pyrrolo[2,3-d]pyrimidin-4-yl)-5,9-diazaspiro[2.6]nonan-9-yl]methanone]
< 100 nM	100 to 1000 nM	100 to 1000 nM	Cc1sncc1C(=O)N1CCCN(c2ncnc3[nH]ccc23)CC12CC2 [Example 230, (5-methylisothiazol-4-yl)-[5-(7H-pyrrolo[2,3-d]pyrimidin-4-yl)-5,9-diazaspiro[2.6]nonan-9-yl]methanone]
100 to 1000 nM	100 to 1000 nM	100 to 1000 nM	O=C(c1ccns1)N1CCN(c2ncnc3[nH]ccc23)CC2(CC2)C1 [Example 235, isothiazol-5-yl-[5-(7H-pyrrolo[2,3-d]pyrimidin-4-yl)-5,8-diazaspiro[2.6]nonan-8-yl]methanone]
100 to 1000 nM	> 1000 nM	100 to 1000 nM	O=C(c1cccc(O)n1)N1CCCN(c2ncnc3[nH]ccc23)CC12CC2 [Example 164, (6-hydroxy-2-pyridyl)-[5-(7H-pyrrolo[2,3-d]pyrimidin-4-yl)-5,9-diazaspiro[2.6]nonan-9-yl]methanone]
100 to 1000 nM	> 1000 nM	100 to 1000 nM	Cc1nnsc1C(=O)N1CCCN(c2ncnc3[nH]ccc23)CC12CC2 [Example 147, (4-methylthiadiazol-5-yl)-[5-(7H-pyrrolo[2,3-d]pyrimidin-4-yl)-5,9-diazaspiro[2.6]nonan-9-yl]methanone]
100 to 1000 nM	100 to 1000 nM	100 to 1000 nM	O=C(c1cnsc1)N1CCN(c2ncnc3[nH]ccc23)CC2(CC2)C1 [Example 210, isothiazol-4-yl-[5-(7H-pyrrolo[2,3-d]pyrimidin-4-yl)-5,8-diazaspiro[2.6]nonan-8-yl]methanone]
100 to 1000 nM	> 1000 nM	100 to 1000 nM	Cc1nc(CC(=O)N2CCN(c3ncnc4[nH]ccc34)CC3(CC3)C2)cs1 [Example 254, 2-(2-methylthiazol-4-yl)-1-[5-(7H-pyrrolo[2,3-d]pyrimidin-4-yl)-5,8-diazaspiro[2.6]nonan-8-yl]ethanone]
100 to 1000 nM	100 to 1000 nM	100 to 1000 nM	O=C(c1cnsn1)N1CCN(c2ncnc3[nH]ccc23)CC2(CC2)C1 [Example 202, [5-(7H-pyrrolo[2,3-d]pyrimidin-4-yl)-5,8-diazaspiro[2.6]nonan-8-yl]-(1,2,5-thiadiazol-3-yl)methanone]
100 to 1000 nM	100 to 1000 nM	100 to 1000 nM	O=C(c1c[nH]nn1)N1CCN(c2ncnc3[nH]ccc23)CC2(CC2)C1 [Example 204, [5-(7H-pyrrolo[2,3-d]pyrimidin-4-yl)-5,8-diazaspiro[2.6]nonan-8-yl]-(1H-triazol-4-yl)methanone]
100 to 1000 nM	> 1000 nM	100 to 1000 nM	O=C(c1cncc(F)c1)N1CCN(c2ncnc3[nH]ccc23)CC2(CC2)C1 [Example 213, (5-fluoro-3-pyridyl)-[5-(7H-pyrrolo[2,3-d]pyrimidin-4-yl)-5,8-diazaspiro[2.6]nonan-8-yl]methanone]
< 100 nM	100 to 1000 nM	100 to 1000 nM	N#Cc1cccc(OCC(=O)N2CCN(c3ncnc4[nH]ccc34)CC3(CC3)C2)c1 [Example 118, 3-[2-oxo-2-[5-(7H-pyrrolo[2,3-d]pyrimidin-4-yl)-5,8-diazaspiro[2.6]nonan-8-yl]ethoxy]benzonitrile]
< 100 nM	> 1000 nM	100 to 1000 nM	Cc1cccc(CC(=O)N2CCN(c3ncnc4[nH]ccc34)CC3(CC3)C2)c1 [Example 262, 2-(m-tolyl)-1-[5-(7H-pyrrolo[2,3-d]pyrimidin-4-yl)-5,8-diazaspiro[2.6]nonan-8-yl]ethanone]
100 to 1000 nM	> 1000 nM	100 to 1000 nM	Cc1ccccc1C(=O)N1CCCN(c2ncnc3[nH]ccc23)CC12CC2 [Example 110, o-tolyl-[5-(7H-pyrrolo[2,3-d]pyrimidin-4-yl)-5,9-diazaspiro[2.6]nonan-9-yl]methanone]
100 to 1000 nM	> 1000 nM	100 to 1000 nM	O=C(c1ccncc1)N1CCCN(c2ncnc3[nH]ccc23)CC12CC2 [Example 130, 4-pyridyl-[5-(7H-pyrrolo[2,3-d]pyrimidin-4-yl)-5,9-diazaspiro[2.6]nonan-9-yl]methanone]
100 to 1000 nM	100 to 1000 nM	100 to 1000 nM	O=C(c1cnco1)N1CCCN(c2ncnc3[nH]ccc23)CC12CC2 [Example 156, oxazol-5-yl-[5-(7H-pyrrolo[2,3-d]pyrimidin-4-yl)-5,9-diazaspiro[2.6]nonan-9-yl]methanone]
100 to 1000 nM	> 1000 nM	100 to 1000 nM	O=C(Cc1ccccn1)N1CCN(c2ncnc3[nH]ccc23)CC2(CC2)C1 [Example 167, 2-(2-pyridyl)-1-[5-(7H-pyrrolo[2,3-d]pyrimidin-4-yl)-5,8-diazaspiro[2.6]nonan-8-yl]ethanone]
100 to 1000 nM	> 1000 nM	100 to 1000 nM	O=C(c1cccnc1)N1CCN(c2ncnc3[nH]ccc23)CC2(CC2)C1 [Example 127, 3-pyridyl-[5-(7H-pyrrolo[2,3-d]pyrimidin-4-yl)-5,8-diazaspiro[2.6]nonan-8-yl]methanone]
< 100 nM	100 to 1000 nM	100 to 1000 nM	O=C(Cc1cncs1)N1CCN(c2ncnc3[nH]ccc23)CC2(CC2)C1 [Example 252, 1-[5-(7H-pyrrolo[2,3-d]pyrimidin-4-yl)-5,8-diazaspiro[2.6]nonan-8-yl]-2-thiazol-5-yl-ethanone]
